The test system of one assay is bone marrow. The experiment in a line: Histopathological analysis of bone marrow sternebrae (cellularity grade, megakaryocytes) after sublethal TBI or sham irradiation. Format: in vivo, mice. As to the method:
To determine the pathophysiological effects of RRx-001 on hematopoietic protection in mice, CD2F1 male mice were treated with 10 mg/kg RRx-001 or the vehicle control 24 hours prior to a sublethal dose of TBI (7 Gy at 0.6 Gy/min using High-level Cobalt-60) or sham irradiation (day 0) according to the table below.
CD2F1 male mice (n=3/group) were divided into 4 experimental groups: 1) irradiation+vehicle, 2) irradiation+RRx-001, 3) sham-irradiation+vehicle and 4) sham-irradiation+RRx-001. Either 10 mg/kg RRx-001 or the vehicle control were IP injected 24 hours prior to either irradiation or sham-irradiation (day 0). On days 2, 7, 14, 21, and 28 post-irradiation (day 0) mice were humanely euthanized. Blood, bone marrow, and sternebrae were then collected. This experiment was performed in duplicate for a total of n=6 mice/group/time point.
Sternebrae from euthanized mice (n=6/group/time point) were collected on days 2, 7, 14, 21 and 28 post-irradiation. Sternebrae were fixed in 10% zinc-buffered formalin for at least 24 hours and up to 7 days. Fixed sternebrae were decalcified for 3 hr in 12-18% sodium EDTA (pH 7.4-7.5) and specimens dehydrated using graded ethanol concentrations and embedded in paraffin. Longitudinal 4 μm sections were stained with regular hematoxylin and eosin. Two board-certified pathologist conducted histopathological evaluation of the samples. One of the pathologist scored all the samples blindly. Bone marrow was evaluated in situ within sternebrae and graded (Grade 1: <10%; Grade 2: 11-30%; Grade 3: 31-60%; Grade 4: 61-89%; Grade 5: >90%) for total cellularity. Megakaryocytes were also quantified based on the average per 10 high power fields (HPF) at 400× magnification using a BX43 or BX53 microscope (Olympus, Minneapolis, MN). Images were captured with an Olympus DP22 camera and imported into Olympus Cellsens Standard software for review.
Blood parameters were compared between treatment groups using an analysis of variance (ANOVA). The Wilcoxon test was also used for sensitivity and to potentially address data departures from normality. A longitudinal mixed model repeated measures was also implemented to provide a more complete data analysis of the sham-irradiated treatment groups' difference in overall time profile mean based on the blood parameters. Bone marrow data (megakaryocytes and grade) statistical analysis was carried out using a parametric test consisting of a general linear model analysis of variance (ANOVA with factors consisting of treatment group and pathologist) and the Kruskal-Wallis nonparametric test. The statistical data analysis was carried out using R software (Version 3.4.3, 2016) and the graphs made using GraphPad Prism version 7.03 (GraphPad Software, La Jolla, CA).
To determine the effect of RRx-001 on bone marrow, a histopathological analysis of bone marrow sternebrae was performed and the cellularity, as reported by grade (grade 1: <10%; grade 2: 11-30%; grade 3: 31-60%; grade 4: 61-89%; grade 5: ≥90% cellularity), and megakaryocyte numbers (averaged per 10 high-powered fields; HPF) were ascertained by two pathologists, one of which scored all the samples blindly (TAS, WEC).

In assay [1] the test system is THP-1 cells. Briefly: Western blotting of ARE proteins in THP-1 monocytes and macrophages. In kind it is cell-based, human. The note with it: THP-1 macrophages; 3 mM RRx-001 16 hours. As to the method:
(§1) Expression of ARE proteins was assayed in hMSC, macrophages, and monocytes following in vitro irradiation of the cells, which were pretreated with RRx-001 or vehicle. Protein expression was assayed by Western blotting and protein quantification.
(§2) hMSC were treated for 16 hours with […] RRx-001 or the vehicle control (0.05% DMSO), irradiated at 10 Gy or sham-irradiated and the protein collected 8 or 24 hours post-sham or irradiation. Human monocytic leukemic THP-1 and U937 cells were differentiated into macrophages with 50 nM Phorbol 12-myristate 13-acetate (PMA) for 24 hours before treatment. Differentiated and non-differentiated cells were treated with […] RRx-001 or 0.05% DMSO (vehicle control) for 16 hours prior to radiation. The cells were irradiated at 5 Gy or sham-irradiated and collected 4-8 hours later for both analysis. For each experiment, duplicates of each sample were run.
For orientation: In western blotting, separated proteins are transferred to a membrane and probed.

The next assay has as its system U937 cells. Briefly: Western blotting of ARE proteins in U937 monocytes and macrophages. Format: cell-based, human. The note with it: 3 mM RRx-001 16 hours. As to the method:
as §1, §2

Assay [2] deals with THP-1 cells. The experiment in a line: Cytokine array of irradiated THP-1 monocytes and macrophages. In kind it is cell-based, human. As to the method:
A cytokine array was employed to examine cytokine expression following in vitro irradiation of human monocytic leukemic THP-1 cells. THP-1 cells were differentiated into macrophages with 50 nM Phorbol 12-myristate 13-acetate (PMA) for 24 hours before treatment. Differentiated and non-differentiated cells were treated with […] RRx-001 or 0.05% DMSO (vehicle control) for 16 hours prior to radiation. The cells were irradiated at 5 Gy or sham-irradiated and collected 4-8 hours later for both analysis. For the cytokine analysis, cell media was collected and blotted onto Proteome Profiler Human Cytokine Arrays (R&D Systems, Inc.) according to the manufacturer's protocol.

The values below come from patent US12357608B2, “Methods and compositions utilizing RRx-001 combination therapy for radioprotection” (priority 2018, dated 2025).

Molecules are shown by their SMILES. “Also recorded” adds a separate entry of the source.

With `O=C(CBr)N1CC([N+](=O)[O-])([N+](=O)[O-])C1` [RRx-001, 2-bromo-1-(3,3-dinitroazetidin-1-yl)ethan-1-one], the “bone marrow cellularity compared to the vehicle control” value with bone marrow (7 Gy TBI, 10 mg/kg IP 24 h before, day 7) is “slight increase in cellularity”. Also, in the assay with bone marrow (7 Gy TBI, 10 mg/kg IP 24 h before, day 14, 10 mg/kg), the “hematopoietic recovery by grade of bone marrow cellularity compared with control” value is recorded as “significantly accelerated hematopoietic recovery; also recorded: significant increase in bone marrow cellularity”. Moreover, the number of megakaryocytes entry with bone marrow (7 Gy TBI, 10 mg/kg, between days 7-28) is “steady increase”; with bone marrow (7 Gy TBI, 10 mg/kg, day 2), “reduced”; in the assay with bone marrow (7 Gy TBI, 10 mg/kg, day 7) it was “severely depleted”. Moreover, the “bone marrow cellularity grade” value in the assay with bone marrow (after 7 Gy TBI, 10 mg/kg IP 24 h before) is 1 (grade 1: <10%). Further, the HO-1 expression entry with THP-1 cells [1] is recorded as “no significant increase in HO-1”; with U937 cells (U937 monocyte fraction) it was “significant increase in HO-1”. Also, the NQO-1 expression result in the assay with U937 cells (U937 macrophages) is on record as “no change”. The SOD-1 expression result with U937 cells (U937 macrophages) is recorded as “no change”. Further, in the assay on U937 cells (U937 macrophages, sham and irradiated groups), the HO-1 production entry is “increased HO-1 production”. Further, in the assay with THP-1 cells [2] (THP-1 macrophage fraction, sham and 5 Gy irradiated, 3 mM RRx-001 16 hours), the “cytokines involved in inflammation” value is reported as “reduction in cytokines involved in inflammation”. Besides, the “pro-inflammatory chemokine IL-8” value in the assay on THP-1 cells [2] (THP-1 macrophages) was “reduction”. The CCL5/RANTES expression entry in the assay on THP-1 cells [2] (THP-1 monocytes, 3 mM RRx-001 16 hours) was “induction; also recorded: upregulation”.
